What is called pEC50 is the EC50 on a negative log10 scale, so that one unit is a factor of ten. Usually Papp stands for the rate of passage across a membrane or cell layer, normalised by area and donor concentration. What is called solubility is the dissolved amount per volume that the medium holds. A lower solubility goes with a poorly soluble substance. As usually defined, the bioavailability is the share of a dose that reaches the circulation, judged against a reference dose that is usually intravenous. A low value points to poor availability.

The structures appear in SMILES notation. pEC50: −log10 of the molar value. Values after ≈ are worked out from the molar mass of the structure shown.

These results are taken from ChEMBL document CHEMBL4725310, “Orally bioavailable HCV NS5A inhibitors of unsymmetrical structural class” (Bioorg Med Chem Lett, 2020).

The target of data set [1] is T1, Nonstructural protein 5A (Hepatitis C virus, UniProt Q5L478).
T1 sequence (Q5L478 whole entry): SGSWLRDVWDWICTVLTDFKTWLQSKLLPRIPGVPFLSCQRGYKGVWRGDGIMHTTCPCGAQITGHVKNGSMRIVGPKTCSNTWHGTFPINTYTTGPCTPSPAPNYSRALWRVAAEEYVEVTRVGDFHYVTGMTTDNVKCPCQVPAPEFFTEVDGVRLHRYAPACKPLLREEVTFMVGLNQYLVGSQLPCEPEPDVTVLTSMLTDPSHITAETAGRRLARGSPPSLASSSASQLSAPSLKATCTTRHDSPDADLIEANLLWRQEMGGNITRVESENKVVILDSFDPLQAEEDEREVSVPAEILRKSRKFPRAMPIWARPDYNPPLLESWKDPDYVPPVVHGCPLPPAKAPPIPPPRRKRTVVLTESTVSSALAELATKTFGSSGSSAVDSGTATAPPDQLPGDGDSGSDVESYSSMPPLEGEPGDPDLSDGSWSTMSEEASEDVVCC
Description: Inhibition of Hepatitis C virus 1b NS5A. Also on record: species or system Hepatitis C virus subtype 1b.

The target in data set [2] is T1, Nonstructural protein 5A. Description: Inhibition of Hepatitis C virus 1a NS5A. Also on record: species or system Hepatitis C virus subtype 1a.
Data set [3] can be described thus: Apparent permeability of compound in human Caco-2 cells. Format: ADME, cell-based. In general terms: Caco-2 cells form a polarised layer with tight junctions and transporters.
Data set [4] is described as follows: Solubility of compound in JP 1st fluid at pH 1.2. Format: physicochemical.
Data set [5] can be described thus: Oral bioavailability in Sprague-Dawley rat at 3 mg/kg. Format: ADME, organism-based. The following applies: in vivo.
Data set [6] can be described thus: Inhibition of Hepatitis C virus 1a NS5A Q30K mutant. Also on record: species or system Hepatitis C virus subtype 1a.
Data set [7] addresses T1, Nonstructural protein 5A. Description: Inhibition of Hepatitis C virus 2a NS5A. Also on record: species or system Hepatitis C virus subtype 2a.
The target of data set [8] is T1, Nonstructural protein 5A. Description: Inhibition of Hepatitis C virus 1a NS5A Q30R mutant. Also on record: species or system Hepatitis C virus subtype 1a.
In data set [9] the target is Nonstructural protein 5A (Hepatitis C virus, UniProt Q5L478, Q30E). Description: Inhibition of Hepatitis C virus 1a NS5A Q30E mutant. Set-up: species or system Hepatitis C virus subtype 1a.
For data set [10], the target named is T1, Nonstructural protein 5A. Description: Inhibition of Hepatitis C virus 3a NS5A. Also on record: species or system Hepatitis C virus subtype 3a.
Data set [11] has as its target T1, Nonstructural protein 5A. Description: Inhibition of Hepatitis C virus 1a H77 NS5A. Also on record: species or system Hepatitis C virus subtype 1a.

With `CCCCCOC(=O)N[C@@H]1CCN(C(=O)N[C@@H](C(=O)N2CCC[C@H]2c2nc(-c3ccc([C@H]4CC[C@H](NC(=O)c5cnccn5)CC4)cc3)c[nH]2)c2ccccc2)C1`, the pEC50 at Nonstructural protein 5A [1] is 11.25; at Nonstructural protein 5A [2] it was 9.01. Besides, the Papp in data set [3] amounted to 30 nm/s. The same compound displayed a solubility in data set [4] of 197 µM (≈ 153 µg/mL). Further, the bioavailability in [5] came out at 11%.

With `CCCC#CCOC(=O)N[C@@H]1CCN(C(=O)N[C@@H](C(=O)N2CCC[C@H]2c2nc(-c3ccc([C@H]4CC[C@H](NC(=O)c5cnccn5)CC4)cc3)c[nH]2)c2ccccc2)C1`, the pEC50 is 10.89 on Nonstructural protein 5A [1] and 9.57 on Nonstructural protein 5A [2]. Also, the Papp in [3] came to 17 nm/s. In addition, in data set [4], the solubility is 135 µM (≈ 106 µg/mL).

With `CC#CCOC(=O)N[C@@H]1CCN(C(=O)N[C@@H](C(=O)N2CCC[C@H]2c2nc(-c3ccc([C@H]4CC[C@H](NC(=O)c5cnccn5)CC4)cc3)c[nH]2)c2ccccc2)C1`, the pEC50 at Nonstructural protein 5A [1] was 10.55; at Nonstructural protein 5A [2] it was 8.68. Further, in data set [3], the apparent permeability (Papp) was found to be 21 nm/s. In data set [4], this compound yielded a solubility of 462 µM (≈ 350 µg/mL).

For the compound `CC(C)C#CCOC(=O)N[C@@H]1CCN(C(=O)N[C@@H](C(=O)N2CCC[C@H]2c2nc(-c3ccc([C@H]4CC[C@H](NC(=O)c5cnc(CO)cn5)CC4)cc3)c[nH]2)c2ccccc2)C1`, the figures for the pEC50 on Nonstructural protein 5A [1] and on Nonstructural protein 5A [2] were 10.77 and 9.92, respectively. Further, the Papp in data set [3] came out at 14 nm/s. In addition, in data set [4], the solubility turned out to be 190 µM (≈ 155 µg/mL). This compound also displayed a bioavailability in data set [5] of 18%.

For the compound `CC(C)(C)C#CCOC(=O)N[C@@H]1CCN(C(=O)N[C@@H](C(=O)N2CCC[C@H]2c2nc(-c3ccc([C@H]4CC[C@H](NC(=O)c5cnc(CO)cn5)CC4)cc3)c[nH]2)c2ccccc2)C1`, the pEC50 was 7.77 in data set [6]; 10.89 on Nonstructural protein 5A [1]; 10.23 at Nonstructural protein 5A [2]; greater than 11.00 at Nonstructural protein 5A [7]; 9.74 at Nonstructural protein 5A [8]; 7.82 at Nonstructural protein 5A [9]. This compound had a pEC50 on Nonstructural protein 5A [10] greater than 11.00. The apparent permeability coefficient (Papp) in data set [3] was 10 nm/s. The same compound had a solubility in [4] of 132 µM (≈ 110 µg/mL). Further, in data set [5], the bioavailability was determined as 32%.

Turning to `CCC#CCOC(=O)N[C@@H]1CCN(C(=O)N[C@@H](C(=O)N2CCC[C@H]2c2nc(-c3ccc([C@H]4CC[C@H](NC(=O)c5cnccn5)CC4)cc3)c[nH]2)c2ccccc2)C1`, the values for the pEC50 at Nonstructural protein 5A [1] and at Nonstructural protein 5A [2] were 10.74 and 9.41, respectively. Also, the Papp in data set [3] came to 31 nm/s. In data set [4], this compound registered a solubility of 336 µM (≈ 259 µg/mL).

In the case of `CC(C)(C)C#CCOC(=O)N[C@@H]1CCN(C(=O)N[C@@H](C(=O)N2CCC[C@H]2c2nc(-c3ccc([C@H]4CC[C@H](NC(=O)c5cnccn5)CC4)cc3)c[nH]2)c2ccccc2)C1`, the values for the pEC50 on Nonstructural protein 5A [1] and on Nonstructural protein 5A [2] were greater than 11.00 and 9.89, respectively. Further, in [3], the Papp was 11 nm/s. This compound also showed a solubility in data set [4] of 142 µM (≈ 114 µg/mL). For the same compound, the bioavailability in data set [5] turned out to be 5.3%.

For the compound `CC(C)C#CCOC(=O)N[C@@H]1CCN(C(=O)N[C@@H](C(=O)N2CCC[C@H]2c2nc(-c3ccc([C@H]4CC[C@H](NC(=O)c5cnccn5)CC4)cc3)c[nH]2)c2ccccc2)C1`, the results for the pEC50 on Nonstructural protein 5A [1] and on Nonstructural protein 5A [2] were greater than 11.00 and 9.74, respectively. The Papp in data set [3] amounted to 16 nm/s. In data set [4], this compound gave a solubility of 246 µM (≈ 193 µg/mL). The same compound returned a bioavailability in data set [5] of 10%.

As for `COC1CCC(C(=O)N[C@H]2CC[C@H](c3ccc(-c4c[nH]c([C@@H]5CCCN5C(=O)[C@H](NC(=O)N5CC[C@@H](NC(=O)OCC6CCCCC6)C5)c5ccccc5)n4)cc3)CC2)CC1` (stereo not given in full), the pEC50 at Nonstructural protein 5A [1] is 10.80; at Nonstructural protein 5A [2], 10.41. Further, the Papp in [3] came to 2.3 nm/s. The concentration in solution in data set [4] (solubility) was 108 µM (≈ 90.3 µg/mL).

Consider `O=C(N[C@@H]1CCN(C(=O)N[C@@H](C(=O)N2CCC[C@H]2c2nc(-c3ccc([C@H]4CC[C@H](NC(=O)c5cnccn5)CC4)cc3)c[nH]2)c2ccccc2)C1)OCC1CCCCC1`, for which the pEC50 at Nonstructural protein 5A [1] is 11.19; on Nonstructural protein 5A [2], 9.46. Besides, in data set [3], the Papp was 8.5 nm/s. The compound further yielded a solubility in [4] of 76 µM (≈ 61 µg/mL). Besides, the bioavailability in data set [5] came to 4.9%.

As for `COC1CCC(C(=O)N[C@H]2CC[C@H](c3ccc(-c4c[nH]c([C@@H]5CCCN5C(=O)[C@H](NC(=O)N5CC[C@@H](NC(=O)OCc6ccccc6)C5)c5ccccc5)n4)cc3)CC2)CC1` (stereo not given in full), the pEC50 on Nonstructural protein 5A [1] is 10.72; on Nonstructural protein 5A [2], 9.77. In data set [3], the Papp is less than 1 nm/s. Besides, the concentration in solution in data set [4] (solubility) came to 193 µM (≈ 160 µg/mL). The bioavailability in data set [5] was found to be 1.4%.

With `COC1CCN(C(=O)N[C@H]2CC[C@H](c3ccc(-c4c[nH]c([C@@H]5CCCN5C(=O)[C@H](NC(=O)N5CC[C@@H](NC(=O)OCc6ccccc6)C5)c5ccccc5)n4)cc3)CC2)CC1`, the values for the pEC50 on Nonstructural protein 5A [1] and on Nonstructural protein 5A [2] were 10.39 and 9.82, respectively. Further, in [3], the Papp was less than 1 nm/s. The same compound yielded a solubility in [4] of 222 µM (≈ 184 µg/mL).

As for `CC#CCCOC(=O)N[C@@H]1CCN(C(=O)N[C@@H](C(=O)N2CCC[C@H]2c2nc(-c3ccc([C@H]4CC[C@H](NC(=O)c5cnccn5)CC4)cc3)c[nH]2)c2ccccc2)C1`, the pEC50 was greater than 11.00 at Nonstructural protein 5A [1] and 8.47 at Nonstructural protein 5A [2]. Moreover, the Papp in data set [3] was determined as 21 nm/s. In data set [4], this compound showed a solubility of 352 µM (≈ 272 µg/mL).

Regarding `COC(=O)N[C@H](C(=O)N1CCC[C@H]1c1ncc(-c2ccc(-c3ccc(-c4cnc([C@@H]5CCCN5C(=O)[C@@H](NC(=O)OC)C(C)C)[nH]4)cc3)cc2)[nH]1)C(C)C` [DACLATASVIR], the pEC50 in data set [6] was 5.91; at Nonstructural protein 5A [11], 10.30; at Nonstructural protein 5A [7], 10.15; at Nonstructural protein 5A [8] it was 7.21; at Nonstructural protein 5A [9] it was 5.90; on Nonstructural protein 5A [10], 9.84.
